# Measured values: paper doi:10.1101/2020.01.16.909325v1 (biorxiv, 2020)
# Target: HTR4 (Homo sapiens, UniProt Q13639)
# Conditions: agonist; pH 7.0, 30 °C
# HTR4, sequence (Q13639 whole entry): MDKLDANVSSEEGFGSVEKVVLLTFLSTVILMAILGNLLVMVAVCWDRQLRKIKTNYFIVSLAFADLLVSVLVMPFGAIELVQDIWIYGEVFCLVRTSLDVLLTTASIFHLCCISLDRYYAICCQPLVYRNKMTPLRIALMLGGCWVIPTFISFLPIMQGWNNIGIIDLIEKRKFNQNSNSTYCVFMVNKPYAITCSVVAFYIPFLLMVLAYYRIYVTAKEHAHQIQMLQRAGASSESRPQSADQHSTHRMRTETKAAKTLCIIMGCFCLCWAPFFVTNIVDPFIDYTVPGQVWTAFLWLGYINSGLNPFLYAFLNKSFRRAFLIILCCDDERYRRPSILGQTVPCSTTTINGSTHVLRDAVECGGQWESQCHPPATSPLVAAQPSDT
compound,measurement,value
NCCc1c[nH]c2ccccc12 [tryptamine],EC50,tryptamine agonism of HTR4 and ADRA2B
